# According to patent US4062733A, “Radio-assay of oestrogen” (The Radiochemical Centre Limited, priority 1975, dated 1977):
# Experiments:
# Format in all cases: binding
# [1] = test system: antiserum produced by immunising with oestrone-6-carbomethoxyoximethyroglobulin (Miles-Yeda); experiment: radioimmunoassay of oestrone, standard curve, Miles-Yeda antiserum; settings: Miles-Yeda antiserum as supplied, label age 23 days
# [2] = test system: antiserum produced by immunising with an oestrone derivative coupled in the 6 position (The John Radcliffe Hospital, Oxford); experiment: radioimmunoassay of oestrone, standard curve, John Radcliffe Hospital antiserum; settings: J. Radcliffe Hosp. antiserum 1/32,000, label age 30 days
# [3] = test system: antiserum produced by immunising with oestradiol-6-carbomethoxyoxime-BSA (Miles-Yeda); experiment: radioimmunoassay of oestradiol, standard curve, Miles-Yeda antiserum; settings: Miles-Yeda antiserum as supplied, label age 23 days
# [4] = test system: antiserum produced by immunising with an oestradiol derivative coupled in the 6 position (The John Radcliffe Hospital, Oxford); experiment: radioimmunoassay of oestradiol, standard curve, John Radcliffe Hospital antiserum
# [5] = test system: antiserum produced by immunising with oestriol-6-carbomethoxyoxime-BSA (antiserum A); experiment: radioimmunoassay of oestetrol, standard curve, antiserum A; settings: antiserum A 1/100, label age 7 days
# [6] = test system: antiserum produced by immunising with oestriol-6-carbomethoxyoxime-BSA (antiserum B); experiment: radioimmunoassay of oestetrol, standard curve, antiserum B; settings: antiserum B 1/100, label age 7 days
# [7] = test system: antiserum produced against oestriol conjugated to albumin (antiserum A); experiment: radioimmunoassay of oestriol, standard curve, antiserum A
# Method: (§1) In the assay, an accurately known volume of the biological fluid is incubated with a standard amount of the radio-iodinated oestrogen derivative and a standard amont of the specific reagent, e.g. antibody, insufficient to bind all the oestrogens present. The radio-iodinated oestrogen derivatives and the specific reagent may conveniently be provided in buffered solution containing horse serum. […] The radioactive concentration of the precipitate and/or the supernatant liquid is then counted by standard techniques. If an absolute determination is required, a calibration curve may be generated in the usual way by means of oestrogen, e.g. oestriol, solutions of known concentrations, conveniently also in horse serum.
# (§2) Chloramine-T (0.5 mg in 100 μl water) is added to a stirred mixture of oestriol (50 μg in 400 ul ethanol) and Na^125 I (10mCi in 100 μl dilute NaOH), and the mixture is stirred for a further 5 minutes. Sodium metabisulphite (1.2 mg in 500 μl water) is then added and the mixture stirred for 5 minutes before 1 ml of 0.1 M HCl is added. The mixture is then vigorously stirred with 1 ml of chloroform. The aqueous layer is separated from the organic solvent, and the aqueous layer is re-extracted with a further 1 ml of chloroform. The pooled chloroform extracts are evaporated to dryness under a stream of nitrogen, and the residue is redissolved in 50 μl of ethanol. The ethanol solution of ^125 I -- labelled oestriol derivative is purified by chromatography and the product is diluted in phosphate buffer containing horse serum (10%), sodium azide (1 mg/ml) and gelatine (1 mg/ml) prior to use in the radioimmunoassay
# (§3) Samples of 50 μl of standard solutions of oestriol in horse serum, or of the unknown human serum samples, are dispensed into plastic tubes. To each tube is added 200 μl of a solution of enzymes (extracted from the snail Helix pomatia) in sodium acetate buffer, pH 5, and the contents of the tubes are briefly mixed. The tubes are then stoppered and incubated in a water bath at 37° C for 2 hours. After the incubation, replicate 50 μl samples are taken from the hydrolysed serum and dispensed into plastic tubes. to each tube is added 200 μl of phosphate buffer containing 10% horse serum, sodium azide (1 mg/ml) gelatine (1 mg/ml), and the oestriol derivative labelled with ^125 I as described above (approximately 0.3 μCi/ml). Volumes of 200 μl of the phosphate buffer containing horse serum, sodium azide and gelatine, and containing a dilution of antiserum produced against oestriol conjugated to albumin are added to each tube, and the contents of the tubes are then mixed. The tubes are left at ambient temperature for 30 minutes, and 500 μl of an ammoniumm sulphate solution (5.4 g in 10 ml water) is then added to each tube. After mixing, the tubes are centrifuged, the supernatant liquid is removed by aspiration and the precipitates in the tubes are counted in a γ-counter.
# [8] = test system: antiserum produced against oestriol conjugated to albumin (antiserum B); experiment: radioimmunoassay of oestriol, standard curve, antiserum B
# Method: as §1, §2, §3
# [9] = J. Radcliffe antiserum 1/640, label age 31 days
# [10] = J. Radcliffe antiserum 1/3200, label age 30 days
compound,measurement,setting,value
"C[C@]12CC[C@@H]3c4ccc(O)cc4CC[C@H]3[C@@H]1CCC2=O [E1, oestrone]","% Bound, 1ng oestrone",[1],15.4%
same,"% Bound, 1ng oestrone",[2],11.2%
"C[C@]12CC[C@@H]3c4ccc(O)cc4CC[C@H]3[C@@H]1CC[C@@H]2O [E2, oestradiol]","% Bound, 1ng E2",[3],4.0%
same,"% Bound, 1ng E2",[4]; [9],32.7%
same,"% Bound, 2ng E2",[4]; [9],13.1%
same,"% Bound, 1ng E2",[4]; [10],3.0%
same,"% Bound, 2ng E2",[4]; [10],0.5%
"C[C@]12CC[C@@H]3c4ccc(O)cc4CC[C@H]3[C@@H]1[C@@H](O)[C@@H](O)[C@@H]2O [E4, oestetrol]",% Binding in presence of 20ng E4,[5],11.0%
same,% Binding in presence of 20ng E4,[6],8.1%
"C[C@]12CC[C@@H]3c4ccc(O)cc4CC[C@H]3[C@@H]1C[C@@H](O)[C@@H]2O [E3, Oestriol]","% Bound, 50 ng E3",[7]; 50 ng E3,57.2%
same,"% Bound, 100 ng E3",[7]; 100 ng E3,47.3%
same,"% Bound, 200 ng E3",[7]; 200 ng E3,32.6%
same,"% Bound, 350 ng E3",[7]; 350 ng E3,23.0%
same,"% Bound, 500 ng E3",[7]; 500 ng E3,17.5%
same,"% Bound, 50 ng E3",[8]; 50 ng E3,55.2%
same,"% Bound, 100 ng E3",[8]; 100 ng E3,47.3%
same,"% Bound, 200 ng E3",[8]; 200 ng E3,33.0%
same,"% Bound, 350 ng E3",[8]; 350 ng E3,21.4%
same,"% Bound, 500 ng E3",[8]; 500 ng E3,17.3%
